Where “and” joins values, the source holds several entries; their conditions need not be identical. Equal values may be shown once.

This test concerns DU-145 multicell spheroids with HUVEC/MSC, viability. The test can be described thus: Anticancer human tumor DU-145 cell line growth inhibition [IpAb].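 As to all read-outs here: spheroids exposed to agents for seven days before measurement.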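 As to viability, T/C: percent of DMSO vehicle control viability so 100% = untreated level.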 Conditions: for viability, T/C: stronger effect = lower value. In a few lines:
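Spheroids of 60% malignant cells, 25% HUVEC and 15% MSC were exposed to targeted agents combined with ipatasertib or abemaciclib. Doses started at or near clinical Cmax (10 microM when unknown) and fell in half-log steps.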

Where [1] appears, read: curve of first compound, second compound 0.01 µM.
The mark [2] stands for this setting: curve of first compound, second compound 0.0316 µM.
Where [3] appears, read: curve of first compound, second compound 0.1 µM.
The mark [4] stands for this setting: curve of first compound, second compound 0.316 µM.
[5] abbreviates: curve of first compound, second compound 1 µM.
The mark [6] stands for this setting: second compound 0.01 µM, first compound 0.0316 µM.
The mark [7] stands for this setting: second compound 0.01 µM, first compound 0.1 µM.
Setting [8] is: second compound 0.01 µM, first compound 0.316 µM.
Setting [9] is: second compound 0.01 µM, first compound 1 µM.
[10] abbreviates: second compound 0.0316 µM, first compound 0.0316 µM.
The mark [11] stands for this setting: second compound 0.0316 µM, first compound 0.1 µM.
The mark [12] stands for this setting: second compound 0.0316 µM, first compound 0.316 µM.
Setting [13] is: second compound 0.0316 µM, first compound 1 µM.
[14] abbreviates: second compound 0.1 µM, first compound 0.0316 µM.
Setting [15] is: second compound 0.1 µM, first compound 0.1 µM.
The mark [16] stands for this setting: second compound 0.1 µM, first compound 0.316 µM.
Where [17] appears, read: second compound 0.1 µM, first compound 1 µM.
[18] abbreviates: second compound 0.316 µM, first compound 0.0316 µM.
Setting [19] is: second compound 0.316 µM, first compound 0.1 µM.
Where [20] appears, read: second compound 0.316 µM, first compound 0.316 µM.
[21] abbreviates: second compound 0.316 µM, first compound 1 µM.
[22] abbreviates: second compound 1 µM, first compound 0.0316 µM.
Where [23] appears, read: second compound 1 µM, first compound 0.1 µM.
Where [24] appears, read: second compound 1 µM, first compound 0.316 µM.
Setting [25] is: second compound 1 µM, first compound 1 µM.
Setting [26] is: second compound 0.1 µM, first compound 3.16 µM.
Where [27] appears, read: second compound 0.1 µM, first compound 10 µM.
Where [28] appears, read: second compound 0.316 µM, first compound 3.16 µM.
The mark [29] stands for this setting: second compound 0.316 µM, first compound 10 µM.
Setting [30] is: second compound 1 µM, first compound 3.16 µM.
Setting [31] is: second compound 1 µM, first compound 10 µM.

With `COc1c(OCCCN2CCOCC2)ccc2c3n(c(=NC(=O)c4cnc(N)nc4)nc12)CCN3` + CCN1CCN(Cc2ccc(Nc3ncc(F)c(-c4cc(F)c5nc(C)n(C(C)C)c5c4)n3)nc2)CC1, the IC50 (usually the midpoint of a concentration-inhibition curve) was 7.99 nM under setting [1]; 6.14 nM under setting [2]; 4.88 nM under setting [3]; 4.36 nM under setting [4]; 4.94 nM under setting [5]. Moreover, the viability, T/C – broadly, the ratio of treated to control – by setting is: (second compound 0.01 µM, first compound 0.00316 µM) 79.2%; (second compound 0.01 µM, first compound 0.01 µM) 41.3%; under setting [6], 28%; under setting [7], 15.2%; under setting [8], 9.78%; under setting [9], 11.9%. Moreover, the viability, T/C runs as follows: (second compound 0.0316 µM, first compound 0.00316 µM) 62.9%; (second compound 0.0316 µM, first compound 0.01 µM) 39.9%; under setting [10], 25.3%; under setting [11], 13.5%; under setting [12], 9.95%; under setting [13], 11.3%. Moreover, the viability, T/C (second compound 0.1 µM, first compound 0.00316 µM) was 57.1%; the viability, T/C (second compound 0.1 µM, first compound 0.01 µM) is 38%; the viability, T/C under setting [14] was 23.4%; the viability, T/C under setting [15] is 14.2%; the viability, T/C under setting [16] was 10.9%; the viability, T/C under setting [17] was 11.5%. Further, the viability, T/C (second compound 0.316 µM, first compound 0.00316 µM) was 53.6%; the viability, T/C (second compound 0.316 µM, first compound 0.01 µM) was 40.4%; the viability, T/C under setting [18] is 29.7%; the viability, T/C under setting [19] is 17.7%; the viability, T/C under setting [20] is 13.5%; the viability, T/C under setting [21] was 14%. Also, the viability, T/C by setting is: (second compound 1 µM, first compound 0.00316 µM) 54.4%; (second compound 1 µM, first compound 0.01 µM) 42.8%; under setting [22], 32.9%; under setting [23], 25.7%; under setting [24], 19.7%; under setting [25], 20.8%.

As for `CCCS(=O)(=O)Nc1ccc(F)c(C(=O)c2c[nH]c3ncc(-c4ccc(Cl)cc4)cc23)c1F` + CCN1CCN(Cc2ccc(Nc3ncc(F)c(-c4cc(F)c5nc(C)n(C(C)C)c5c4)n3)nc2)CC1, the IC50 is, setting by setting: under setting [1], over 10000 nM; under setting [2], over 10000 nM; under setting [3], over 10000 nM; under setting [4], over 10000 nM; under setting [5], over 10000 nM. The viability, T/C reads like this: under setting [6], 107%; under setting [7], 107%; under setting [8], 102%; under setting [9], 115%; (second compound 0.01 µM, first compound 3.16 µM) 106%; (second compound 0.01 µM, first compound 10 µM) 79.8%. For the same compound, the viability, T/C by setting is: under setting [10], 101%; under setting [11], 107%; under setting [12], 105%; under setting [13], 115%; (second compound 0.0316 µM, first compound 3.16 µM) 106%; (second compound 0.0316 µM, first compound 10 µM) 72.4%. Besides, the viability, T/C is 95.8% under setting [14]; 95.5% under setting [15]; 99.3% under setting [16]; 107% under setting [17]; 98.3% under setting [26]; 65.9% under setting [27]. Further, the viability, T/C was 80.3% under setting [18]; 84.9% under setting [19]; 87.1% under setting [20]; 88.6% under setting [21]; 89.4% under setting [28]; 52.4% under setting [29]. Further, the viability, T/C was 70.1% under setting [22]; 66.9% under setting [23]; 67% under setting [24]; 64.6% under setting [25]; 69.9% under setting [30]; 54.8% under setting [31].

Consider `CC1(C)CCC(CN2CCN(c3ccc(C(=O)NS(=O)(=O)c4ccc(NCC5CCOCC5)c([N+](=O)[O-])c4)c(Oc4cnc5[nH]ccc5c4)c3)CC2)=C(c2ccc(Cl)cc2)C1`, for which the viability, T/C was 104% (compound 0.0316 µM); 103% and 109% (compound 0.1 µM); 104% and 107% (compound 0.316 µM); 96.4% and 99.4% (compound 1 µM); 69.2% and 76% (compound 3.16 µM); 10.1% and 10.8% (compound 10 µM). The IC50 (curve of compound) is 4530 nM and 4990 nM.

In the case of `Cn1nccc1Nc1nccc(-c2ccn(C(CO)c3ccc(Cl)c(F)c3)c(=O)c2)n1` (stereo not drawn), the viability, T/C (compound 0.0316 µM) was 87.3% and 90%; the viability, T/C (compound 0.1 µM) was 72.5% and 77.1%; the viability, T/C (compound 0.316 µM) was 79% and 73.5%; the viability, T/C (compound 1 µM) was 93.7% and 87.4%; the viability, T/C (compound 3.16 µM) is 112% and 116%; the viability, T/C (compound 10 µM) is 65% and 81.9%. The IC50 (curve of compound) is over 10000 nM.

In the case of `CC(C)n1nc(-c2ccc3oc(N)nc3c2)c2c(N)ncnc21`, the viability, T/C reads like this: (compound 0.000316 µM) 78.7% and 94.3%; (compound 0.001 µM) 57.3% and 66.2%; (compound 0.00316 µM) 41.3% and 40.2%; (compound 0.01 µM) 22.9% and 21.7%; (compound 0.0316 µM) 14.4% and 12%; (compound 0.1 µM) 10.8% and 10.1%. Further, the IC50 (curve of compound) was 1.66 nM and 2.03 nM.

In the case of `CC(=O)c1c(C)c2cnc(Nc3ccc(N4CCNCC4)cn3)nc2n(C2CCCC2)c1=O`, the viability, T/C runs as follows: (compound 0.000949 µM) 104% and 89.4%; (compound 0.003 µM) 102% and 98.4%; (compound 0.00949 µM) 99.7% and 96.5%; (compound 0.03 µM) 103% and 93.6%; (compound 0.0949 µM) 99.4% and 97.1%; (compound 0.3 µM) 90.7% and 80.9%. Moreover, the IC50 (curve of compound) was over 300 nM.

With `Cn1nccc1Nc1nccc(-c2ccn(C(CO)c3ccc(Cl)c(F)c3)c(=O)c2)n1` (stereo not drawn) + CC(C)NCC(C(=O)N1CCN(c2ncnc3c2C(C)CC3O)CC1)c1ccc(Cl)cc1, the IC50 was over 10000 nM under setting [3]; under 31.6 nM under setting [4]; under 31.6 nM under setting [5]; under 31.6 nM (curve of first compound, second compound 3.16 µM); under 31.6 nM (curve of first compound, second compound 10 µM). For the same compound, the viability, T/C is 65.6% under setting [14]; 57.1% under setting [15]; 60% under setting [16]; 76.8% under setting [17]; 99% under setting [26]; 66.2% under setting [27]. For the same compound, the viability, T/C under setting [18] is 42.6%; the viability, T/C under setting [19] is 36.2%; the viability, T/C under setting [20] is 35.8%; the viability, T/C under setting [21] was 45.7%; the viability, T/C under setting [28] was 66.3%; the viability, T/C under setting [29] was 60.3%. Besides, the viability, T/C was 27.4% under setting [22]; 24.6% under setting [23]; 26.2% under setting [24]; 30.7% under setting [25]; 42.3% under setting [30]; 47.6% under setting [31]. In addition, the viability, T/C was 18.7% (second compound 3.16 µM, first compound 0.0316 µM); 16.5% (second compound 3.16 µM, first compound 0.1 µM); 19.3% (second compound 3.16 µM, first compound 0.316 µM); 20.7% (second compound 3.16 µM, first compound 1 µM); 27.6% (second compound 3.16 µM, first compound 3.16 µM); 36.8% (second compound 3.16 µM, first compound 10 µM). The viability, T/C (second compound 10 µM, first compound 0.0316 µM) was 13.4%; the viability, T/C (second compound 10 µM, first compound 0.1 µM) is 11.6%; the viability, T/C (second compound 10 µM, first compound 0.316 µM) is 11.7%; the viability, T/C (second compound 10 µM, first compound 1 µM) was 14.3%; the viability, T/C (second compound 10 µM, first compound 3.16 µM) was 21.7%; the viability, T/C (second compound 10 µM, first compound 10 µM) was 24.6%.

(Values after PubChem BioAssay AID2060335 (Molecular Pharmacology Branch, DTP, NCI, 2025).)
